Measured values: patent US20130071328A1, “Propynoic Acid Carbamoyl Methyl-Amides and Pharmaceutical Compositions and Methods Based Thereon” (UNIVERSITY OF SOUTHERN CALIFORNIA, priority 2011, published 2013)

Columns and labels:
[1] = test system: UMUC3 bladder cancer cell line; assay: MTT cytotoxicity assay, UMUC3; format: cell-based; conditions: Homo sapiens, 72 h exposure
From the text: (§1) The human breast cancer cell line MDA-MB-435 and the colon cancer cell line HT29 were purchased from the American Type Cell Culture (Manassas, Va.). Colon cancer cell lines HCT116 p53^+/+ and HCT116 p53^−/− were kindly provided by Dr. Bert Vogelstein (Johns Hopkins Medical Institutions, Baltimore, Md.). The human ovarian carcinoma cell line (HEY), naturally resistant to cisplatin (CDDP), was kindly provided by Dr. Louis Dubeau (USC Norris Cancer Center). The bladder cancer cell lines were kindly provided by Dr. Richard Cote (USC Keck School of Medicine). Cells were maintained as monolayer cultures in the appropriate media: RPMI-1640 (HT29, HCT116 p53^+/+, HCT116 p53^−/−, and HEY cell lines) or DMEM (MDA-MB-435 and UMUC3 cell lines) supplemented with 10% fetal bovine serum (FBS) (HyClone, Road Logan, Utah) at 37° C. in a humidified atmosphere of 5% CO2. To remove the adherent cells from the flask for subculture and counting, cells were washed with PBS without calcium or magnesium, incubated with a small volume of 1×trypsin-EDTA solution (Sigma-Aldrich, St. Louis, Mo.) for 5 min, resuspended with fresh culture medium, and centrifuged at 1200 rpm for 5 min. All experiments were performed using cells in exponential growth phase. Cells were routinely checked for Mycoplasma contamination using PlasmaTest kit (InvivoGen, San Diego, Calif.).
(§2) Cytotoxicity was assessed by MTT assay as described previously. 43 In brief, cells were seeded in 96-well microtiter plates and allowed to attach overnight. Cells were subsequently treated with continuous exposure to corresponding drugs for 72 h. At the end of treatments, an MTT solution (at a final concentration of 0.5 mg/mL) was added to each well, and cells were incubated for 4 h at 37° C. After removal of the supernatant, DMSO was added, and the absorbance was read at 570 nm. All assays were done in triplicate. The IC50 was then determined for each drug from a plot of log(drug concentration) versus percentage of cells killed.

[2] = test system: HT29 colon cancer cell line; assay: MTT cytotoxicity assay, HT29; format: cell-based; conditions: Homo sapiens, HT-29, 72 h exposure
From the text: as §1, §2

[3] = test system: HEY ovarian cancer cell line; assay: Cytotoxicity assay, HEY; format: cell-based; conditions: Homo sapiens; MTT, 72 h exposure (Table 2)
From the text: as §1, §2

[4] = test system: HCT116 p53^+/+ colon cancer cell line; assay: MTT cytotoxicity assay, HCT116 p53+/+; format: cell-based; conditions: Homo sapiens, HCT-116, 72 h exposure
From the text: as §1, §2

[5] = test system: MDA-MB-435 xenograft; assay: MDA-MB-435 mouse xenograft model; format: in vivo
Method: To investigate the in vivo efficacy of these compounds, we selected compound 2 and evaluated its anticancer activity in a nude mouse xenograft model using MDA-MB-435 cells. Animals were treated with daily intraperitoneal (i.p.) injections of DMSO in sesame oil (vehicle control) or compound 2 at 10 mg/kg for 9 days, followed by 20 mg/kg for 5 days and concluding with 40 mg/kg for 12 days. After 26 days of dosing, the drug treatment was discontinued. Mice were monitored daily for an additional 17 days, and tumors were measured twice per week. FIG. 4A summarizes the tumor volume (mean±SEM) of the treatment groups throughout the observation time.
Sixteen virgin female athymic nude (nu/nu) mice (Simonsen Laboratory Inc., Gilroy, Calif.) were used for in vivo efficacy testing. […]
Human breast cancer MDA-MB-435 cells in logarithmic phase growth from in vitro cell culture were inoculated subcutaneously on the rear flank of the mice (1.5×10^6 cells/mouse) under aseptic conditions. Tumor growth was assessed twice weekly by measuring tumor diameters with a Vernier caliper (length×width). Tumor weight was calculated according to the formula: TW (mg)=tumor volume (mm^3)=d^2×D/2, where d and D are the shortest and longest diameters, respectively. […]
Eight mice were assigned to each group and the results were expressed as the mean±SEM. […]

[6] = test system: doxorubicin-resistant NCI/ADR-RES ovarian cancer cell line; assay: Cytotoxicity assay, NCI/ADR-RES; format: cell-based; conditions: Homo sapiens, MTT, 72 h exposure (Table 2)
Method: as §2

[7] = test system: MDA-MB-435 cells; assay: Apoptosis assay, annexin V/propidium iodide flow cytometry; format: cell-based, human
Method: To quantify drug-induced apoptosis, annexin V/propidium iodide staining was performed and analyzed by flow cytometry. MDA-MB-435 cells were treated with 10 μM compound 1, 2, or 4 for 24 and 48 h. After treatment, both floating and adherent cells were combined and subjected to annexin V/propidium iodide staining using an annexin V-FITC apoptosis detection kit (Oncogene Research Products, San Diego, Calif.) according to manufacturer's recommendations. Untreated control cells (48 h) were maintained in parallel to drugtreated groups. Double staining was used to distinguish between viable, early apoptotic, and necrotic or late apoptotic cells. The resulting fluorescence (FITC-A channel for green fluorescence and PE-A channel for red fluorescence) was measured by flow cytometry using a BD LSRII flow cytometer (BD Biosciences, San Jose, Calif.).

[8] = test system: 5637 bladder cancer cell line; assay: MTT cytotoxicity assay, 5637; format: cell-based, human; conditions: Homo sapiens, 72 h exposure
From the text: as §1, §2

[9] = test system: HCT116 p53^−/− colon cancer cell line; assay: MTT cytotoxicity assay, HCT116 p53-/-; format: cell-based; conditions: Homo sapiens, HCT-116, 72 h exposure
From the text: as §1, §2

[10] = test system: MDA-MB-435 cells; assay: Mitochondrial superoxide production (MitoSOX Red); format: cell-based, human; conditions: for mitochondrial superoxide production, flow cytometry: IC50 or 3×IC50, 24 hours
Method: After drug treatments, a solution of 5 μM MitoSOX Red mitochondrial superoxide indicator (Invitrogen, Carlsbad, Calif.) was added, and cells were incubated for 10 min at 37° C. Cells were then washed three times with Hank's balanced salt solution (HBSS) to remove excess MitoSOX. After washing, cells were either observed under the fluorescence microscope or collected by trypsinization, washed twice with HBSS, and measured for superoxide production using a BD LSRII flow cytometer (BD Biosciences, San Jose, Calif., USA). Data were analyzed with the BD FACSDiva software package (BD Biosciences, San Jose, Calif., USA).

[11] = test system: MDA-MB-435 breast cancer cell line; assay: MTT cytotoxicity assay, MDA-MB-435; format: cell-based, human; conditions: for IC50: 72 h exposure
From the text: as §1, §2

[12] = Pharmacokinetics study after i.p. administration; format: in vivo, mice; conditions: mouse, ip
Method: To assess the efficacy, tolerability, and pharmacokinetics of these novel compounds following i.p. administration, the pharmacokinetic profile of compounds 4 and 9 was evaluated (Table 3). Mice were treated with compounds 4 and 9 via i.p. injection and serial blood sampling was determined at indicated times after administration. The plasma concentration was determined using a validated liquid chromatography mass spectrometry (LC-MS) method where the lowest level of quantification was 1 ng/mL. One hour following i.p. administration of compounds 4 and 9, their concentrations in the blood were 344 and 6.2 ng/mL, respectively. […] The half-lives of compounds 4 and 9 via i.p. administration were determined to be approximately 3.5 and 9.3 hours, respectively, when a non-compartmental pharmacokinetics analysis was used. The favorable pharmacokinetics profile of compounds 4 and 9 is consistent with the ADMET predictions described previously.
Preliminary pharmacokinetics of compounds 4 and 9 were performed using 18 mice, each time point consisting of two mice. Mice were stratified to various doses given as an i.p. injection of compounds 4 and 9 (24 mg/kg). At the specified time points following drug administration, blood was collected with heparinized syringes. The samples were allowed to settle in 500 μL eppendorf vials and then centrifuged at 1500 rpm for 10 min. The plasma was removed, transferred into new eppendorf tube, and frozen at −80° C. until analysis.

| SMILES | IC50 [1] [µM] | IC50 [2] [µM] | IC50 [3] [µM] | IC50 [4] [µM] | IC50 [6] [µM] | IC50 [8] [µM] | IC50 [9] [µM] | mitochondrial superoxide production, flow cytometry [10] | IC50 ([11]; Homo sapiens, MDA-MB-435, 72 h) [µM] | other results |
| --- | --- | --- | --- | --- | --- | --- | --- | --- | --- | --- |
| C#CC(=O)N(c1cccc(C(F)(F)F)c1)C(C(=O)NC1CCCC1)c1cccc(OC)c1 (centres unmarked) [Compound 2, N-[2-(Cyclopentylamino)-1-(3-methoxyphenyl)-2-oxoethyl]-N-[3-(trifluoromethyl)phenyl]Propynamide] | > 20 | 7.2 ± 0.2 | 5.2 ± 3.4 | > 10 | 0.2 ± 0.1 | 0.6 ± 0.4 | 8.8 ± 0.4 | induce significant amounts of superoxide | – | tumor burden (tumor volume) ([5]; i.p. daily 10 mg/kg 9 days, 20 mg/kg 5 days, 40 mg/kg 12 days): significantly reduced tumor burden; average body weight after treatment ([5]; mean±SD, after treatment, control 28±2 g): 29 ± 2 g; induction of early apoptosis ([7]; 10 μM, 24 hours): failed to induce early apoptosis; increase in early apoptotic cells ([7]; 10 μM, 48 h): 8%; percentage of late apoptotic cells ([7]; 10 μM, 48 hours): 37%; induction of apoptosis ([7]; 24 and 48 hours): induce apoptosis |
| C#CC(=O)N(c1ccc(-n2cnnn2)c(C)c1)C(C(=O)NC1CCCC1)c1ccccc1 (centres unmarked) [Compound 9, N-[2-(Cyclopentylamino)-2-oxo-1-phenylethyl]-N-[3-methyl-4-(1Htetraazol-1-yl)phenyl]Propynamide] | 7.8 ± 1.8 | 1.5 ± 1.1 | 1.9 ± 0.3 | 7.2 ± 0.2 | 1 ± 0.7 | 0.4 ± 0.1 | 5.7 ± 0.9 | – | 0.6 to 6.3 | cytotoxic potency in MDA-MB-435 cells [11]: most potent analogue; IC50 [11]: 0.6 ± 0.3 µM; AUC ([12]; in vivo, 24 mg/kg): 0.1249 µg·h/mL; Cmax ([12]; in vivo, 24 mg/kg): 6.2 ng/mL; Tmax ([12]; in vivo, 24 mg/kg): 5 h; half-life ([12]; in vivo, 24 mg/kg): ~9.3 h; t1/2 ([12]; in vivo, 24 mg/kg): 9.3 h; concentration at 1 h ([12]; plasma, mice, 24 mg/kg i.p., 1 hour, read-out: concentration in the blood one hour following i.p. administration): 6.2 ng/mL |
| C#CC(=O)N(c1ccccc1)C(C(=O)NC1CCCCC1)c1cccs1 (centres unmarked) [Compound 18, N[2-(Cyclohexylamino)-2-oxo-1-thien-2-ylethyl]-N-phenyl Propynamide] | > 20 | > 10 | > 10 | 14 | 1.3 ± 0.4 | 3.5 ± 1.4 | > 20 | induce significant amounts of superoxide | > 10 | intensity of MitoSOX staining, fluorescence microscopy ([10]; 24 hours): remarkably enhanced the intensity of MitoSOX staining |
| CC(=O)O[C@H]1C(=O)[C@@]2(C)[C@H]([C@H](OC(=O)c3ccccc3)[C@]3(O)C[C@H](OC(=O)[C@H](O)[C@@H](NC(=O)c4ccccc4)c4ccccc4)C(C)=C1C3(C)C)[C@]1(OC(C)=O)CO[C@@H]1C[C@@H]2O [paclitaxel, reference compound] | – | – | – | – | – | – | – | – | – | mitochondrial superoxide, fluorescence microscopy ([10]; 1.5 μM): only induced a minor amount of mitochondrial superoxide |
